Publication PMC4156305, “Structure Driven Design of Novel Human Ether-A-Go-Go-Related-Gene Channel (hERG1) Activators” (PLoS ONE, 2014)
Entries after “also recorded” stand apart in the source; their conditions may differ.

How the values were obtained:
hERG1 [1] = target: T1, hERG1 (Homo sapiens, UniProt Q12809); assay: Whole cell patch-clamp of hERG1 currents in transfected HEK 293 cells; format: cell-based; design: Inactivation ΔV0.3: unit not given here; settings: for Deactivation Δλ/λcon: deactivation time constant relative to baseline; for Activation V1/2 (mV): shift in voltage-dependence of activation; for Inactivation ΔV0.3: shift in voltage-dependence of inactivation; for Amplitude I/Icon: tail current relative to baseline
T1 construct: expressed in transfected cells; host or cells: HEK 293
Experimental: (§1) Transfected HEK cells on glass cover slips were placed in a chamber mounted on a modified stage of an inverted microscope. The chamber was superfused at a rate of 2 mL/min with a normal external solution. The extracellular solution contained (in mM) NaCl 140, KCl 5.4, CaCl2 1, MgCl2 1, HEPES 5, glucose 5.5, pH 7.4, with NaOH. Micropipettes were pulled from borosilicate glass capillary tubes on a programmable horizontal puller (Sutter Instruments, Novato, CA). Standard patch-clamp methods were used to measure the whole cell currents of hERG1 mutants expressed in HEK 293 cells using the AXOPATCH 200B amplifier (Axon Instruments). Unless otherwise indicated, tail currents were recorded when the voltage was returned to −50 mV from +50 mV. Further details on electrophysiological methods are collected in Methods S1.
(§2) Electrophysiology Protocol:
(§3) The pipette solution contained the following (at mM concentration): KCl 10, K-aspartate 110, MgCl2 5, Na2ATP 5, EGTA 10, HEPES 5, and CaCl2 1. The solution was adjusted to pH 7.2 with KOH. The extracellular solution contained the following (at mM concentration): NaCl 140, KCl 5.4, CaCl2 1, MgCl2 1, HEPES 5, and glucose 5.5. The solution was adjusted to pH 7.4 with NaOH. For IKr measurements, the whole cell configuration of the patch clamp method was used. The series resistance was less than 7
(§4) MΩ. The data were sampled at 1 kHz. The holding potential was -80 mV. The activation of hERG tail currents was induced by depolarization to a range of potentials from +50 to -100 mV in 10 mV steps for 1 second. This was followed by repolarization to -100 mV for 1 second to record the tail currents.
(§5) -100 mV, a -120 mV 1 second pre-pulse was applied to completely close the hERG channels before subsequent depolarization. All of the tail currents reported in this manuscript represent dofetilide-sensitive currents. The inactivation of hERG was measured by a previously reported triple-pulse protocol5, 6. The holding potential was -80 mV. The hERG channel was first depolarized to +50 mV for 1 second. Recovery from inactivation was achieved using a short pulse (a 10 ms hyperpolarization) to -120 mV, followed by the application of test pulses from -100 to 0 mV for 1 second in 10 mV steps.
(§6) A voltage of -100 mV was selected because it was on the flat part of the inactivation-voltage relationship. The methods employed are identical to ones previously reported. […]

hERG1 E544L [2] = target: T2, hERG1 E544L (Homo sapiens, UniProt Q12809, E544L); assay: Whole cell patch-clamp of hERG1 E544L mutant; format: cell-based; settings: 10 µM
T2 construct: expressed in transfected cells; host or cells: HEK 293
Experimental: as §1, §2, §3, §4, §5, §6

hERG1 [3] = target: T1, hERG1; settings: cited from earlier work
hERG1 E544L [4] = target: T2, hERG1 E544L; settings: ref [7]–[12]; cited from earlier work
[5] = system: fetal mouse ventricular myocytes; assay: Action potential recordings in neonatal (day 1) / fetal mouse ventricular myocytes; format: cell-based; settings: for upstroke of the action potential, overshoot potential and excitability threshold: 20 µM
Experimental: (§7) Action potentials were recorded from neonatal (day 1) mouse ventricular myocytes as previously reported. Although IKr has little physiologic importance to the action potential of the adult rodent heart, we previously reported that IKr is the dominant repolarizing current in day 1 neonatal myocytes, with little or no IKs. Thus, these neonatal cells are well suited to assess the physiologic relevance of blockade of IKr to the action potential characteristics. In contrast, to address the possibility that compounds inadvertently interact with other channels, action potentials were recorded from adult cardiac myocytes. Myocytes on glass coverslips were placed in a chamber mounted on a modified stage of an inverted microscope.

[6] = target: T3, cardiac sodium current (INa) (Mus musculus, UniProt Q9JJV9); assay: Patch clamp of INa in neonatal cardiomyocytes; format: cell-based
T3 construct: endogenous in cells; host or cells: neonatal (day 1) mouse ventricular cardiomyocytes
Experimental: as §7
Figure 10 Drug effect on action potential in cardiomyocytes. Panel A. The effect of 20 µM and 3 µM Panel B. MC-II-157c on action potentials neonatal cardiomyocytes. […] In patch clamp studies, the INa was induced by depolarizations to −30 mV from holding potentials of −100 mV. The light traces are baseline and bold traces were recorded with MC-II-157c.

[7] = Conc. 2 µM, listed as MC-II-159c
[8] = Conc. 3 µM, listed as MC-II-157c
[9] = Conc. 10 µM, listed as MC-II-157c

T3 sequence (Q9JJV9 whole entry): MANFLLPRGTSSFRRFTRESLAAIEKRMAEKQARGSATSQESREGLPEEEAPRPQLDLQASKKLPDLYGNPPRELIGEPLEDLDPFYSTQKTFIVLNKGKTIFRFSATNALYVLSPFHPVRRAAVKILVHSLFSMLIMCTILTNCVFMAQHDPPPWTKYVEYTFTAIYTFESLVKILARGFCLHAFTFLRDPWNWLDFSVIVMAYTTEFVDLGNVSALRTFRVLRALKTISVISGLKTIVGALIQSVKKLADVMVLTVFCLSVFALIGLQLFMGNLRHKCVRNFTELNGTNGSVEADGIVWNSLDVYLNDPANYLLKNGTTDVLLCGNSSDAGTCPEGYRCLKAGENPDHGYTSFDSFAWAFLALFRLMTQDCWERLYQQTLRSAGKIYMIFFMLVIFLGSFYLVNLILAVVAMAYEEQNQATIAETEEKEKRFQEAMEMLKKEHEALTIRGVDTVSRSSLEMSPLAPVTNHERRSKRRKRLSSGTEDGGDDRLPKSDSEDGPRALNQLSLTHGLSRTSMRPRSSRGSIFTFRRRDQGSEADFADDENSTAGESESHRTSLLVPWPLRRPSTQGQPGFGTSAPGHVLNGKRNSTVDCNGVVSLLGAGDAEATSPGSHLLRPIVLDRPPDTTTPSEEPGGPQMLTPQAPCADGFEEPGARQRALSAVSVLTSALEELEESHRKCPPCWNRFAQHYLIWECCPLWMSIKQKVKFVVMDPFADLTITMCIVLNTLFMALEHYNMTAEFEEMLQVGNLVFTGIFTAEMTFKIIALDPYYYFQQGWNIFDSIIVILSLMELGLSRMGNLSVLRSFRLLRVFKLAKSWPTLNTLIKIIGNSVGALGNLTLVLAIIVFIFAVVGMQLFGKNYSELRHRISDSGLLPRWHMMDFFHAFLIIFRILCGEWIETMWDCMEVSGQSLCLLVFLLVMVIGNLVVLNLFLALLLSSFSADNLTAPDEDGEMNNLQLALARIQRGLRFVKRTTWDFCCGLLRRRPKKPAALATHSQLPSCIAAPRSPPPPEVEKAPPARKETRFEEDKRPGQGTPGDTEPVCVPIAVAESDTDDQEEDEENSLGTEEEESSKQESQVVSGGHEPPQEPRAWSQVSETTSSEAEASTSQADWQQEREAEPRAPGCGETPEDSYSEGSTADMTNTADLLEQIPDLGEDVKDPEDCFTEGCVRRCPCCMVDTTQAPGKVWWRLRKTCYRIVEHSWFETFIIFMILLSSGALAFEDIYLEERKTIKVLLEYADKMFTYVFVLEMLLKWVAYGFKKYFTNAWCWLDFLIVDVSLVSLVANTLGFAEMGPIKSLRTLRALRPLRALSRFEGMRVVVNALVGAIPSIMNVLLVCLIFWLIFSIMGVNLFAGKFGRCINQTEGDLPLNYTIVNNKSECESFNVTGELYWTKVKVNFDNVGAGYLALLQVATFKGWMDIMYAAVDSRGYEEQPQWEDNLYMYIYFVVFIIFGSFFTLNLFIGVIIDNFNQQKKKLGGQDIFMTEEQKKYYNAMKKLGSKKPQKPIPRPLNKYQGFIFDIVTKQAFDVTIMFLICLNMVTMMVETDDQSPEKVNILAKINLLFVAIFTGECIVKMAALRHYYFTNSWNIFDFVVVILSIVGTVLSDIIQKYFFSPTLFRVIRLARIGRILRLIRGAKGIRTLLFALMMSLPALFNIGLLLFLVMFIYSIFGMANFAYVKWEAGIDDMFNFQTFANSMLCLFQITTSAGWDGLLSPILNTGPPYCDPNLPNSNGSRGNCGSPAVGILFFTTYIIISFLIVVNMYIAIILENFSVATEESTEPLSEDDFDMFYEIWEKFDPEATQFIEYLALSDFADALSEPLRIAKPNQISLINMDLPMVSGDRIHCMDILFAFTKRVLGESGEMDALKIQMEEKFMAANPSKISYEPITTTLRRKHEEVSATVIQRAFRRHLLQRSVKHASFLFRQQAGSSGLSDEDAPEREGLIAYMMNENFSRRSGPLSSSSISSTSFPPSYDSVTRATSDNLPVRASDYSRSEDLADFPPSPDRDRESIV

O=C(Nc1cc(C(F)(F)F)ccc1O)Nc1cc(C(F)(F)F)ccc1O [NS1643]
Deactivation Δλ/λcon (hERG1 [1]; Conc. 10 µM): 1±0.4
Activation V1/2 (mV) (hERG1 [1]; Conc. 10 µM): −21±2.3 mV
Inactivation ΔV0.3 (hERG1 [1]; Conc. 10 µM): +6±0.6
Amplitude I/Icon (hERG1 [1]; Conc. 10 µM): 1±0.04
safety factor (hERG1 [1]; original safety factor, blockade versus activation): 3 fold
pharmacologic responses (shift in voltage-dependence of activation, slowing of deactivation) in E544L versus WT (hERG1 E544L [2]): exaggerated pharmacologic responses; also recorded: exaggerated response
response in amplitude of the tail current in E544L versus WT (hERG1 E544L [2]): exaggerated
NS1643-induced increase in tail current amplitude (hERG1 [3]; WT, ref [7]–[12]): 13%
NS1643-induced slowing of deactivation (hERG1 [3]; WT, ref [7]–[12]): 1.9 fold
concentration increasing current density / tail current magnitude (hERG1 [3]; ref [7]): 10 µM
concentration producing channel blockade (hERG1 [3]; ref [7]): 30 µM
concentration that increases the magnitude of the tail current (hERG1 [3]; ref [13]): 10 µM
concentrations that pharmacologically block the channel (hERG1 [3]; ref [13]): 20–30 µM
NS1643-induced shift in the V1/2 of activation (hERG1 [3]; wild type (WT), ref [7]–[12]): −18±3 mV
NS1643-induced increase in tail current amplitude (hERG1 E544L [4]): 398%
NS1643-induced shift in the V1/2 of activation (hERG1 E544L [4]): −24±3 mV
NS1643-induced slowing of deactivation (hERG1 E544L [4]): 3.5 fold

C[C@H](NCc1ccc(Br)cc1)C(=O)NC(=O)Nc1cc(C(F)(F)F)ccc1O [Compound 4]
lower drug concentration at which effects on deactivation were still manifest (hERG1 [1]): ~2 µM
Deactivation Δλ/λcon (hERG1 [1]; Conc. 2 µM): 0.25±0.02
Deactivation Δλ/λcon (hERG1 [1]; [7]): significantly prolonged deactivation
Activation V1/2 (mV) (hERG1 [1]; Conc. 2 µM): −5±2 mV
Inactivation ΔV0.3 (hERG1 [1]; Conc. 2 µM): −0.5±0.5
Amplitude I/Icon (hERG1 [1]; Conc. 2 µM): 0.76±0.14
Amplitude I/Icon (hERG1 [1]; [7]): 0.76
Inactivation ΔV0.3 (hERG1 [1]; Conc. 10 µM): shifts voltage dependence to hyperpolarized potentials
Deactivation Δλ/λcon (hERG1 [1]; Conc. 20 µM): 3.1±1.6
Activation V1/2 (mV) (hERG1 [1]; Conc. 20 µM): −33±14 mV
Inactivation ΔV0.3 (hERG1 [1]; Conc. 20 µM): −4.5±1.5
Amplitude I/Icon (hERG1 [1]; Conc. 20 µM): 0.6±0.07
Amplitude I/Icon (hERG1 [1]; Conc. 20 µM, listed as MC-II-159c): 0.6
response in amplitude of the tail current in E544L versus WT (hERG1 E544L [2]): markedly diminished
pharmacologic responses (shift in voltage-dependence of activation, slowing of deactivation) in E544L versus WT (hERG1 E544L [2]; listed as MC-II-159c): significantly and substantially less pharmacologic responses; also recorded: significantly and substantially reduced
upstroke of the action potential, overshoot potential and excitability threshold [5]: affected the upstroke of the action potential, the overshoot potential and the excitability threshold

C[C@H](NCc1ccc(C(F)(F)F)cc1)C(=O)NC(=O)Nc1cc(C(F)(F)F)ccc1O [Compound 5]
lower drug concentration at which effects on deactivation were still manifest (hERG1 [1]): ~2 µM
Deactivation Δλ/λcon (hERG1 [1]; Conc. 1 µM): 0.2±0.1
Activation V1/2 (mV) (hERG1 [1]; Conc. 1 µM): −2±0.0 mV
Inactivation ΔV0.3 (hERG1 [1]; Conc. 1 µM): 1.3±0.9
Amplitude I/Icon (hERG1 [1]; Conc. 1 µM): 0.95±0.02
Deactivation Δλ/λcon (hERG1 [1]; Conc. 3 µM): 0.8±0.1
Deactivation Δλ/λcon (hERG1 [1]; [8]): slows deactivation; also recorded: modest slowing of deactivation
Activation V1/2 (mV) (hERG1 [1]; Conc. 3 µM): −6.5±0.5 mV
Activation V1/2 (mV) (hERG1 [1]; [8]): does shift voltage dependence of activation; also recorded: shifting V1/2 of activation to hyperpolarized potentials
Inactivation ΔV0.3 (hERG1 [1]; Conc. 3 µM): 1±1
Amplitude I/Icon (hERG1 [1]; Conc. 3 µM): 1.1±0.04
Amplitude I/Icon (hERG1 [1]; [8]): significantly increased the tail-current amplitude; also recorded: increases tail current amplitude; also recorded: modest increase in tail current amplitude
Deactivation Δλ/λcon (hERG1 [1]; Conc. 10 µM): 3.3±1.3
Activation V1/2 (mV) (hERG1 [1]; Conc. 10 µM): −14±3.6 mV
Inactivation ΔV0.3 (hERG1 [1]; Conc. 10 µM): 14.0±2.7
Inactivation ΔV0.3 (hERG1 [1]; [9]): shifts voltage-dependence of inactivation to depolarized potentials
Amplitude I/Icon (hERG1 [1]; Conc. 10 µM): 0.88±0.1
Amplitude I/Icon (hERG1 [1]; [9]): 0.88
Deactivation Δλ/λcon (hERG1 [1]; Conc. 20 µM): 3.5±0.2
Activation V1/2 (mV) (hERG1 [1]; Conc. 20 µM): −15.3±4.1 mV
Inactivation ΔV0.3 (hERG1 [1]; Conc. 20 µM): +9.3±2.0
Amplitude I/Icon (hERG1 [1]; Conc. 20 µM): 0.86±0.1
Deactivation Δλ/λcon (hERG1 [1]; Conc. 50 µM): 4.5±0.1
Activation V1/2 (mV) (hERG1 [1]; Conc. 50 µM): −27.5±3.5 mV
Inactivation ΔV0.3 (hERG1 [1]; Conc. 50 µM): 26±1
Amplitude I/Icon (hERG1 [1]; Conc. 50 µM): 0.83±0.1
magnitude of the effects on activation and deactivation, greater than previously reported with NS1643 (hERG1 [1]; relative to NS1643): 6-10 fold
response in amplitude of the tail current in E544L versus WT (hERG1 E544L [2]): markedly diminished
pharmacologic responses (shift in voltage-dependence of activation, slowing of deactivation) in E544L versus WT (hERG1 E544L [2]; listed as MC-II-157c): significantly and substantially less pharmacologic responses; also recorded: significantly and substantially reduced
action potential duration ([5]; 3 µM, listed as MC-II-157c): significantly shortened action potential duration
upstroke of the action potential, overshoot potential and excitability threshold ([5]; listed as MC-II-157c): affected the upstroke of the action potential, the overshoot potential and the excitability threshold; also recorded: decreased the upstroke dV/dt of the action potential, the overshoot potential and excitability threshold
concentrations at which INa is blocked [6]: > 20 µM
blockade of the sodium current (INa) ([6]; 20 µM, listed as MC-II-157c): blocks a cardiac sodium channel; also recorded: substantially blocks INa
